Laboratory results as given in patent US20260062426A1, “CYCLIN DEPENDENT KINASE DEGRADERS AND METHODS OF USE THEREOF” (Differentiated Therapeutics Inc, priority 2023, published 2026).

How the values were obtained:
Format in all cases: cell-based
CCNE1 = target: T1, CCNE1 (Homo sapiens, UniProt P24864+P24941); assay: CCNE1 HIBIT PQ (protein quantification), degradation; conditions: for CCNE1 HIBIT PQ Max (%): Max = Maximum
T1 construct: host or cells: HEK293
Method in brief: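 For DC50 and maximal degradation, CCNE1 protein was quantified with a HiBiT assay in HEK293 cells carrying HiBiT-tagged CCNE1. Cells in EMEM with 10% FBS went into 384-well plates at 1.6×10⁵ cells/well in 50 uL, stayed overnight at 37° C and 5% CO₂, and then received compound for 6 hours. Readings were referenced to 0.1% DMSO-treated cells as the high control and culture medium only as the low control.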

CDK9 = target: T2, CDK9 (Homo sapiens, UniProt P50750); assay: CDK9 HIBIT PQ (protein quantification), degradation; conditions: Max = Maximum
T2 construct: host or cells: HEK293
T2 sequence (P50750 whole entry): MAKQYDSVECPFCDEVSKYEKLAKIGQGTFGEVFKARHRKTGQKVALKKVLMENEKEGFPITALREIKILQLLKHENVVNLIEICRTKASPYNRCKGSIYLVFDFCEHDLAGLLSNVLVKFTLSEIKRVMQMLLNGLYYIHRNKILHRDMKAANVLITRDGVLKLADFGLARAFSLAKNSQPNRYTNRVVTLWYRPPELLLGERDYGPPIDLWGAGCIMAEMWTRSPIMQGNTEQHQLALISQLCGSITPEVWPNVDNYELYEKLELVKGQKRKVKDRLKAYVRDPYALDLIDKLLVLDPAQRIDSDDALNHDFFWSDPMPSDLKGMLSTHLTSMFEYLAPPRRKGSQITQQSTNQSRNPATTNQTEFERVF
Method in brief: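 In 384-well plates, HEK293 cells with HiBiT-tagged CDK9, grown in DMEM with 10% FBS, were seeded at 1.6×10^5 cells/well in 50 uL and kept overnight at 37° C and 5% CO2. After compound treatment, a HiBiT assay quantified CDK9 protein against a high control of 0.1% DMSO-treated cells and a low control of culture medium only. Maximal degradation, Dmax and DC50 were derived from the resulting signal.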

CDK2 = target: T3, CDK2 (Homo sapiens, UniProt P24941); assay: CDK2 HIBIT PQ (protein quantification), degradation; conditions: for CDK2 HIBIT PQ Max (%): Max = Maximum; for DC50: PQ = Protein Quantification
T3 construct: host or cells: HEK293
Method in brief: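 HEK293 cells carrying HiBiT-tagged CDK2 were grown in DMEM with 10% FBS and seeded in 384-well plates at 1.6×10^5 cells/well in 50 uL, then incubated overnight at 37° C and 5% CO2. After 6 hours of compound treatment, 20 μL of HiBiT reagent (Nano-Glo HiBiT lytic buffer, lytic substrate, LgBiT protein) was added and plates were shaken for 20 minutes at room temperature before an EnVision reading. High control was 0.1% DMSO and low control was medium only. Maximal degradation and DC50 were derived from these readings.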

| CCNE1 HIBIT PQ Max (%) (CCNE1) | DC50 (CCNE1; PQ = Protein Quantification) | Dmax (CDK9) | CDK2 HIBIT PQ Max (%) (CDK2) | DC50 (CDK2) | SMILES |
| --- | --- | --- | --- | --- | --- |
| 88% | 3.14 nM | 14% | 94% | 0.6 nM | CC(C)Oc1c(-c2cn[nH]c2)ncn2nc(Nc3ccc(S(=O)(=O)N(C)CCCN4CCC(c5cccc6c(N7CCC(=O)NC7=O)nn(C)c56)CC4)cc3F)nc12 [Compound 24] |
| 25% | – | 17% | 79% | 6.5 nM | CC(C)Oc1c(-c2cn[nH]c2)ncn2nc(Nc3ccc(S(=O)(=O)c4cccc(N5CCCC6C5CN6c5ccc6c(c5)CN(C5CCC(=O)NC5=O)C6=O)c4)cc3F)nc12 (stereo not drawn) [Compound 35] |
